Consider 1 molecule from patent US20080227863A1, “Organic Compounds” (Novartis AG, priority 2005, published 2008).

Structures are written as SMILES.

Broadly, the melting point is the temperature, or range, at which the solid turns liquid.

Take `N#CC(C#N)(COc1ccccc1Cl)NC(=O)c1ccc(OC(F)(F)F)cc1` [Compound 1.3, N-[2-(2-Chloro-phenoxy)-1,1-dicyano-ethyl]-4-trifluoromethoxy-benzamide]: the melting point fell in the range of 154 to 155 °C.
